Results: article PMC5613062 (Investigational New Drugs, 2017)

How the values were obtained:
[1] = ref product label, cited from earlier work
[2] = system: SW620 human colorectal cancer xenograft; set-up: method as in earlier work; conditions: AZD6244 25 mg/kg BD; irinotecan 25 mg/kg once weekly; docetaxel 15 mg/kg once weekly; ref IB; cited from earlier work
[3] = system: HCT-116 human colorectal cancer xenograft; set-up: method as in earlier work; conditions: AZD6244 25 m/kg BD; docetaxel 15 mg/kg once weekly; ref IB; cited from earlier work
[4] = set-up: method as in product label; conditions: ref product label, cited from earlier work
[5] = Pharmacokinetics alone and in combination, selumetinib + erlotinib arm; conditions: for tmax: median (range)
Protocol: (§1) PK parameters were derived using non-compartmental analysis. Cmax and tmax were determined by visual inspection of the plasma concentration-time profiles. AUC(0–12) was calculated by the linear trapezoidal rule. Where more than one maximum occurred, the reported value was assigned to the first occurrence.

[6] = Pharmacokinetics alone and in combination, selumetinib + temsirolimus arm; type: in vivo, human; conditions: for AUC(0–8) / AUC(0–12) / Cmax: geometric mean (% CV); for tmax: median (range)
Protocol: as §1

ERK phosphorylation = system: ERK phosphorylation; set-up: method as in earlier work; conditions: cultured cells; more active than parent; ref IB; cited from earlier work
[7] = ref Study ARRY-0401, cited from earlier work
CYP1A2 = system: CYP1A2; set-up: method as in earlier work; conditions: weak inhibition; ref IB; cited from earlier work
cell viability = system: cell viability; set-up: method as in earlier work; conditions: more active than parent; ref IB; cited from earlier work
Ki67 = system: Ki67; set-up: method as in Study ARRY-0401; conditions: 100 mg BD; ref Study ARRY-0401; cited from earlier work
[8] = set-up: method as in earlier work; conditions: cynomolgus monkeys dosed for up to one month; ref IB; cited from earlier work
[9] = set-up: method as in earlier work; conditions: ref IB; cited from earlier work
[10] = set-up: method as in earlier work; conditions: daily oral administration in SBE-CD for 1 month, rats; ref IB; cited from earlier work
tumor pERK = system: tumor pERK; set-up: method as in Study ARRY-0401; conditions: 100 mg BD, Day 15 compared with pre-dose; 90% CI 50% to 93%; ref Study ARRY-0401; cited from earlier work
[11] = geometric mean (% CV), dosed alone, selumetinib 50 mg cohort (N = 14), erlotinib 100 mg QD
[12] = geometric mean (% CV), dosed alone, selumetinib 75 mg cohort (N = 6), erlotinib 100 mg QD
[13] = geometric mean (% CV), dosed in combination, selumetinib 50 mg BID (N = 12) + erlotinib 100 mg QD
[14] = geometric mean (% CV), dosed in combination, selumetinib 75 mg BID (N = 6) + erlotinib 100 mg QD
[15] = geometric mean, QD cohorts, dosed alone, selumetinib 50 mg cohort (N = 7), erlotinib 100 mg QD
[16] = geometric mean, QD cohorts, dosed alone, selumetinib 100 mg cohort (N = 6), erlotinib 100 mg QD
[17] = geometric mean, QD cohorts, dosed alone, selumetinib 150 mg cohort (N = 13), erlotinib 100 mg QD
[18] = geometric mean, QD cohorts, in combination, selumetinib 50 mg (N = 6) + erlotinib 100 mg QD
[19] = geometric mean, QD cohorts, in combination, selumetinib 100 mg (N = 6) + erlotinib 100 mg QD
[20] = geometric mean, QD cohorts, in combination, selumetinib 150 mg (N = 12) + erlotinib 100 mg QD
[21] = dosed alone, selumetinib 50 mg cohort (N = 25), temsirolimus 25 mg IV
[22] = dosed alone, selumetinib 75 mg cohort (N = 6), temsirolimus 25 mg IV
[23] = dosed in combination, selumetinib 50 mg BID (N = 22) + temsirolimus 25 mg IV
[24] = dosed in combination, selumetinib 75 mg BID (N = 5) + temsirolimus 25 mg IV

CN(C)/N=N/c1[nH]cnc1C(N)=O [dacarbazine]
incidence of hepatic toxicity with hepatic vein thrombosis and hepatocellular necrosis resulting in death ([1]; patients treated): approximately 0.01% | patients affected by anorexia, nausea, and vomiting ([1]; with the initial few doses): Over 90%

CC(=O)O[C@@]12CO[C@@H]1C[C@H](O)[C@@]1(C)C(=O)[C@H](O)C3=C(C)[C@@H](OC(=O)[C@H](O)[C@@H](NC(=O)OC(C)(C)C)c4ccccc4)C[C@@](O)([C@@H](OC(=O)c4ccccc4)[C@H]21)C3(C)C [Docetaxel]
Tumor growth inhibition as a % of control [2]: 12 % of control | Tumor growth inhibition as a % of control [3]: 93.4 % of control | severe neurosensory symptoms (paresthesia, dysesthesia, pain) ([4]; 53/965 metastatic breast cancer patients): 5.5% | treatment discontinuation due to severe neurosensory symptoms ([4]; metastatic breast cancer patients): 6.1%

O=C(NOCCO)c1cc2nc[nH]c2c(F)c1Nc1ccc(Br)cc1Cl [N-desmethyl selumetinib]
AUC(0–8) [5, 11]: 141.3 (41.79) [13] ng•h/mL | AUC(0–12) [5, 11]: 173.4 (39.75) [12] ng•h/mL | Cmax [5, 11]: 41.69 (60.64) ng/mL | AUC(0–8) [5, 12]: 195.9 (36.04) ng•h/mL | AUC(0–12) [5, 12]: 223.9 (34.90) ng•h/mL | Cmax [5, 12]: 66.80 (75.74) ng/mL | AUC(0–8) [5, 13]: 130.4 (39.09) ng•h/mL | AUC(0–12) [5, 13]: 153.3 (39.37) ng•h/mL | Cmax [5, 13]: 43.37 (47.62) ng/mL | AUC(0–8) [5, 14]: 227.5 (57.77) ng•h/mL | AUC(0–12) [5, 14]: 262.7 (53.29) ng•h/mL | Cmax [5, 14]: 72.94 (91.01) ng/mL | AUC(0–8) [5, 15]: 156 ng·h/mL | AUC(0–12) [5, 15]: 181 ng·h/mL | Cmax [5, 15]: 45.6 ng/mL | AUC(0–8) [5, 16]: 347 ng·h/mL | AUC(0–12) [5, 16]: 401 ng·h/mL | Cmax [5, 16]: 109 ng/mL | AUC(0–8) [5, 17]: 279 ng·h/mL | AUC(0–12) [5, 17]: 331 ng·h/mL | Cmax [5, 17]: 79.6 ng/mL | AUC(0–8) [5, 18]: 149 ng·h/mL | AUC(0–12) [5, 18]: 181 ng·h/mL | Cmax [5, 18]: 44.5 ng/mL | AUC(0–8) [5, 19]: 404 ng·h/mL | AUC(0–12) [5, 19]: 454 ng·h/mL | Cmax [5, 19]: 129 ng/mL | AUC(0–8) [5, 20]: 286 ng·h/mL | AUC(0–12) [5, 20]: 344 ng·h/mL | Cmax [5, 20]: 68.3 ng/mL | tmax ([5]; QD cohorts, dosed alone, selumetinib 50 mg cohort (N = 7), erlotinib 100 mg QD): 1.50 (1.00–4.00) h | tmax ([5]; QD cohorts, dosed alone, selumetinib 100 mg cohort (N = 6), erlotinib 100 mg QD): 1.50 (1.50–4.00) h | tmax ([5]; QD cohorts, dosed alone, selumetinib 150 mg cohort (N = 13), erlotinib 100 mg QD): 1.50 (1.00–8.00) h | tmax ([5]; QD cohorts, in combination, selumetinib 50 mg (N = 6) + erlotinib 100 mg QD): 1.50 (1.50–8.00) h | tmax ([5]; QD cohorts, in combination, selumetinib 100 mg (N = 6) + erlotinib 100 mg QD): 1.50 (1.00–2.00) h | tmax ([5]; QD cohorts, in combination, selumetinib 150 mg (N = 12) + erlotinib 100 mg QD): 2.00 (1.00–4.00) h | tmax ([5]; dosed alone, selumetinib 50 mg cohort (N = 14), erlotinib 100 mg QD): 1.5 (1.0–12.0) h | tmax ([5]; dosed alone, selumetinib 75 mg cohort (N = 6), erlotinib 100 mg QD): 1.45 (1.0–2.0) h | tmax ([5]; dosed in combination, selumetinib 50 mg BID (N = 12) + erlotinib 100 mg QD): 1.25 (1.0–4.0) h | tmax ([5]; dosed in combination, selumetinib 75 mg BID (N = 6) + erlotinib 100 mg QD): 1.5 (1.0–2.0) h | PK parameters when administered alone and in combination ([5]; selumetinib + erlotinib arm): similar | AUC(0–8) [6, 21]: 124.3 (80.50) ng•h/mL | AUC(0–12) [6, 21]: 168.2 (54.21) [23] ng•h/mL | Cmax [6, 21]: 35.28 (109.00) ng/mL | AUC(0–8) [6, 22]: 231.1 (68.07) ng•h/mL | AUC(0–12) [6, 22]: 269.4 (62.60) ng•h/mL | Cmax [6, 22]: 75.34 (88.64) ng/mL | AUC(0–8) [6, 23]: 129.4 (59.96) ng•h/mL | AUC(0–12) [6, 23]: 168.2 (57.86) [14] ng•h/mL | Cmax [6, 23]: 38.51 (81.60) ng/mL | AUC(0–8) [6, 24]: 167.8 (51.40) ng•h/mL | AUC(0–12) [6, 24]: 190.5 (55.06) [4] ng•h/mL | Cmax [6, 24]: 48.36 (65.63) ng/mL | tmax [6, 21]: 1.5 (1.0–8.0) h | tmax [6, 22]: 1.5 (1.0–4.0) h | tmax [6, 23]: 2.0 (1.0–2.0) h | tmax [6, 24]: 2.0 (1.0–2.0) h | PK parameters when administered alone and in combination ([6]; selumetinib + temsirolimus arm): similar | activity relative to AZD6244 parent compound, inhibition of ERK phosphorylation (ERK phosphorylation): approximately 3 fold | plasma concentrations/exposure as % of AZD6244 concentrations/exposure ([7]; Part B of the study): ≤ 10% | IC50 (CYP1A2): 18.9 µM | activity relative to AZD6244 parent compound, inhibition of cell viability (cell viability): approximately 5 fold

Cn1cnc2c(F)c(Nc3ccc(Br)cc3Cl)c(C(=O)NOCCO)cc21 [AZD6244 free-base]
patients with reduction in Ki67 (Ki67): 9/20 | patients with reduction in Ki67 ≥50% of pre-dose (Ki67): 5 patients | tissue mineralization [8]: not apparent | solubility [9]: limited solubility | patients with SD ([7]; RECIST, as of 30 September 2006): 17 patients | best overall response ([7]; RECIST): stable disease (SD) | patients with long term (≥5 months) SD ([7]; RECIST): 9 patients | MTD ([7]; free-base mix and drink formulation): 100 mg BD | tolerability [10]: well tolerated | toxicity findings [10]: soft stools and gastrointestinal mucosal mineralization | inhibition of tumor pERK, geometric mean (tumor pERK): 81%
